Compound	melting point
CCC(=O)Nc1cccc(NC(=O)CC(C)=O)c1	70 °C
O=C(O)CCc1cn(Cc2ccc(OCc3ccccn3)cc2)cc1-c1ccccc1	109 to 110 °C
OC(c1ccc(F)cc1)(c1ccc(F)cc1)C1CCNC1 (stereo not given)	152 to 153 °C
Cn1ncc(C(=O)NC2COC2)c1C(=O)Nc1ccn2nc(-c3ccccc3)nc2c1	> 250 °C
C#CC(C)(C)N=C(NC#N)SC	128 to 130 °C
CN(C)CC(C)(C)Oc1cnc(Nc2cc(-c3cccc(-n4ncc5cc(C(C)(C)C)cc(F)c5c4=O)c3CO)nn(C)c2=O)cn1	235 to 240 °C
CCCCCCCCCCCCc1ccc(NC)c([N+](=O)[O-])c1	54 °C
O=C(NC1CCCC1)c1ccc(CCN2CC=C(c3c[nH]c(-c4ccc(F)cc4)c3-c3ccncc3)CC2)cc1	192 to 195 °C
COc1ccc(CNc2ccc(O)c(C(=O)O)c2)cc1	205 to 206 °C
Cc1csc(N2CCN(CC(O)c3ccc(O)c(C(N)=O)c3)CC2)n1 (stereo not given)	182 °C
O=C1CCC(N2Cc3c(OCc4cnc5ccccc5c4)cccc3C2=O)C(=O)N1 (stereo not given)	270 to 273 °C
COc1cc2cc3c(Nc4ccc(Sc5nccn5C)c(Cl)c4)c(C#N)cnc3cc2cc1OCCn1ccnn1	201 to 207 °C
Clc1ccc(-c2cc(C3=CCN(Cc4c[nH]c5ncccc45)CC3)on2)cc1	245 to 247 °C
O=c1[nH]c2ccc(O)cc2n1CCN1CCN(c2cccc(C(F)(F)F)c2)CC1	> 250 °C
CC(=O)Nc1ccc(S(=O)(=O)Nc2nncs2)cc1	214 to 215 °C
O=C1CCC(N2Cc3c(OCc4cn5cc(CN6CCOCC6)ccc5n4)cccc3C2=O)C(=O)N1 (stereo not given)	155 to 157 °C
CCOc1cc2cc(COC(C)=O)c(COC(C)=O)c(-c3ccncc3)c2cc1OCC	115 to 116 °C
CC1(C)C(=O)NC(=O)c2c1ccc1nc(Nc3c(Cl)cccc3Cl)[nH]c21	290 to 292 °C
Cc1cn(C(C)C(=O)N(C)C)nc1-c1ccccc1Cl (stereo not given)	98.5 to 100 °C
COC(=O)[C@@](C#N)(Cc1ccc(Br)cc1)[C@H](c1ccccc1OC)c1cccc2ccccc12 (relative stereo)	218 to 219 °C
COc1ccc2c(c1)C(=O)C(Cc1ccncc1)CO2 (stereo not given)	91 to 92.5 °C

More lines, now with the values ahead:

melting point	Compound
136 to 138 °C	O=C(NCc1ccc(F)cc1)c1cccnc1Oc1ccc(F)cc1
126 to 128 °C	Cn1nc(-c2nc(O)c(Cl)cc2F)c(Cl)c1OC(F)F
174 °C	CC(=O)OC1CSC(Oc2cncc(Br)c2)C(OC(C)=O)C1OC(C)=O (stereo not given)
105 to 120 °C	COc1ccccc1-c1nc(C)c(-c2cccnc2)n1O
95 to 96 °C	FC(F)(F)c1ccc(C(Cl)=NN=Cc2ccccc2)cc1
220 to 224 °C	O=C(c1cc2cc([N+](=O)[O-])ccc2[nH]1)N1CCC(Cc2ccccc2)CC1
199 to 202 °C	COc1ccc(CC(NC(c2ccccc2)c2ccccc2)P(O)O)cc1 (stereo not given)
112 to 113 °C	Cc1ccc(C[C@H](N)[C@H](O)c2ccc(F)cc2)cc1OC(F)(F)C(F)F (racemic)
148 to 150 °C	Fc1ccc(-c2cc(-c3ccc(F)cc3)nc(Nc3ccc(OC(F)(F)F)cc3)n2)cc1
94 to 99 °C	CS(=O)(=O)N1CCN(S(=O)(=O)C=Cc2ccccc2)C(C(=O)NO)C1 (stereo not given)
52 to 54 °C	COC(=O)C(C)C(C#Cc1ccccc1)c1ccc(OC)c(OC2CCCC2)c1 (racemic)
156 to 159 °C	CC(=O)N1CCC(Br)(C(=O)c2ccc(F)cc2)CC1
67 to 69 °C	C#CCSc1ncn(C(=O)N(CC)CC)n1
242 to 243 °C	CN(C)c1ccc(C=Cc2ccc(S(C)(=O)=O)cc2)cc1
124 to 126 °C	O=C1[C@H]2CCC[C@H]2Nc2ccc(F)cc2N1Cc1ccccc1 (relative stereo)
160 to 161 °C	CSC(=O)c1c(C(F)F)nc(C(F)(F)F)c(C(=O)SC)c1N
138 to 140 °C	CCCS(=O)C1(S(=O)(=O)NC(C)(C)C)C=CC=CN1 (stereo not given)
273 to 274 °C	O=C(NC1CC1)c1cccc(-c2ccc3ccn(-c4ccc(Cl)cc4Cl)c3c2)c1
108 °C	OC1(c2ccc(Cl)cc2)CN(C(c2ccccc2)c2ccccc2)C1
79 to 81 °C	Brc1cccc(OCc2ccc3ccccc3n2)c1
257 °C	CCCCc1nc(SC2CCCCC2)c(C(=O)O)n1Cc1cc2c(cc1Cl)OCO2
147 to 148 °C	CCCn1c(=O)c2[nH]c(C3CCC(=O)C3)nc2n(CCC)c1=O (stereo not given)
85 to 86 °C	COc1ccc(COc2c(C)c(C)c3c(c2C)CC2(CCN(Cc4ccccc4)CC2)O3)cc1
211 to 214 °C	COc1ccc(-c2nc(NC3=NCCN3)sc2-c2ccc(OC)cc2)cc1
198 to 200 °C	O=S(=O)(Nc1cccc(Br)c1)c1cc(S(=O)(=O)Nc2cccc(Br)c2)c2cc(O)ccc2c1
128 to 130 °C	CCCS(=O)c1ccc([N+](=O)[O-])c(N)c1 (stereo not given)
> 270 °C	CCOc1cc2ncc(C#N)c(Nc3ccc4c(=O)[nH][nH]c(=O)c4c3)c2cc1OCC
186 to 190 °C	CC(=O)N[C@@H](C)c1ccc(C(=O)O)cc1
140 to 141 °C	CCOC(=O)c1cnn(-c2ccc3ccccc3n2)c1S(N)(=O)=O

Source: a melting point compilation (Tetko et al.; mined from patent text by program, amines drawn as free bases though some values may be those of a salt)
